The test system of one experiment is Rhizoctonia solani. The experiment is described as follows: Example F rice sheath blight. Format: in vivo. As to conditions: for pest or weed control at 20 ppm / pest or weed control at 100 ppm: Rhizoctonia solani, 144 h, read-out: disease control rating, Ex. F. On the procedure: The test compounds were dissolved in acetone in an amount equal to 6% of the final volume and then suspended at a concentration of 100 or 20 ppm in purified water containing 250 ppm of the surfactant TREM 014 (polyhydric alcohol esters). This suspension was sprayed to the point of run-off on rice seedlings.

The test system of experiment [1] is Aspergillus fumigatus ATCC 28214. The experiment is described as follows: In vitro antifungal MIC, microtiter broth dilution. As to conditions: for MIC: Aspergillus fumigatus, ATCC28214, 24 h, read-out: MIC values, A. fumigatus, 30°, 24 hours.
Experiment [2] deals with Candida albicans ATCC 11651. Kind of experiment: In vivo systemic Candida infection in mice, primary assay. Details: species or system Candida albicans; CF-1 female mice. As to conditions: 150 mg/kg per day; for responders at 150 mg/kg: Candida albicans, read-out: % Survival. The text has this:
The […] activity of test compounds is based on the percent (%) survival of infected animals receiving test or standard agent compared to that in an infected untreated group (Table 6). The in vivo assays are chronic systemic infections lethal to mice within 7 days post infection, [J. Barnes, et al. Lab Investigation, 49 460-467 (1963), and T. Rogers and E. Balish, Infection and Immunity, 14 33-38 (1976)].
Candida albicans ATCC 11651, from a frozen stock culture (10^9 organisms/ml) maintained at -70°, is diluted in saline to 1×10^7 organisms/ml and 0.2 ml inoculated intravenously (caudal vein) into 20.0 gm CF-1 female mice (Charles River).
Test compounds are routinely solubilized in 0.25% (w/v) methylcellulose (Methocel®) but for those compounds difficult to solubilize 10% (w/v) Emulophor® (EL620 GAF Corp.) is used. The standard antifungal agents, amphotericin B (Fungizone®) in water and ketoconazole (Nizoral®) in Methocel®, are administered at 1.0 mg/kg/day and 150 mg/kg/day, respectively.
In a primary assay, mice (10 per group) are infected with C. albicans, and receive test compounds at 50 or 150 mg/kg/day via the subcutaneous route. Animals are dosed with the test compound at 1 and 6 hour post-infection and then once daily for the next three days. Survival of mice in each group is recorded for 21 days.
Compounds which protect ≥70% of the infected animals for 14 days at a dose 150 mg/kg/day or less are viewed as active.

The subject of experiment [3] is Candida albicans ATCC 11651. The experiment is described as follows: In vitro antifungal MIC, microtiter broth dilution. As to conditions: for MIC: Candida albicans, ATCC11651, 24 h, read-out: MIC values, C. albicans, 30°, 24 hours.
A further experiment has as its system Puccinia recondita. The experiment is described as follows: Example G wheat leaf rust. Format: in vivo. As to conditions: read-out: disease control rating, Ex. G.
A further experiment relates to Plasmorpara viticola. The experiment is described as follows: Example I grape downy mildew. Format: in vivo. As to conditions: for pest or weed control at 100 ppm: read-out: disease control rating, Ex. I. How it is done: The test compounds were dissolved in acetone in an amount equal to 6% of the final volume and then suspended at a concentration of 100 or 20 ppm in purified water containing 250 ppm of the surfactant TREM 014 (polyhydric alcohol esters). This suspension was sprayed to the point of run-off on grape seedlings.

Experiment [4] concerns Erysiphe graminis f. sp. tritici. The experiment is described as follows: Example D wheat powdery mildew. Format: in vivo. As to conditions: Blumeria graminis, 144 h, read-out: disease control rating, Ex. D. On the procedure:
The test compounds were dissolved in acetone in an amount equal to 6% of the final volume and then suspended at a concentration of 100 or 20 ppm in purified water containing 250 ppm of the surfactant TREM 014 (polyhydric alcohol esters). This suspension was sprayed to the point of run-off on wheat seedlings.

In the next experiment the test system is Pyricularia oryzae. Kind of experiment: whole plant or invertebrate. To be noted: for pest or weed control at 20 ppm / pest or weed control at 100 ppm: Pyricularia oryzae, 120 h; for pest or weed control at 20 ppm: read-out: disease control rating, Ex. E, 20 PPM; for pest or weed control at 100 ppm: read-out: disease control rating, Ex. E, 100 PPM. The format is in vivo.

The subject of another experiment is Venturia inaequalis. The experiment is described as follows: Example A apple scab. Format: in vivo. To be noted: read-out: disease control rating, Ex. A. How it is done: The test compounds were dissolved in acetone in an amount equal to 6% of the final volume and then suspended at a concentration of 100 or 20 ppm in purified water containing 250 ppm of the surfactant TREM 014 (polyhydric alcohol esters). This suspension was sprayed to the point of run-off on apple seedings.

The test system of a further experiment is Botrytis cinerea. The experiment is described as follows: Example C bean grey mold. Format: in vivo. As to conditions: for pest or weed control at 20 ppm / pest or weed control at 100 ppm: Botrytis cinerea, 24 h, read-out: disease control rating, Ex. C. On the procedure: The test compounds were dissolved in acetone in an amount equal to 6% of the final volume and then suspended at a concentration of 100 or 20 ppm in purified water containing 250 ppm of the surfactant TREM 014 (polyhydric alcohol esters). This suspension was sprayed to the point of run-off on broad bean seedlings.

In experiment [5] the test system is Cercosporidium personatum. The experiment is described as follows: Example B Peanut Late Leafspot. As to conditions: Nothopassalora personata, read-out: disease control rating, Ex. B. The format is in vivo. How it is done: The test compounds were dissolved in acetone in an amount equal to 6% of the final volume and then suspended at a concentration of 100 or 20 ppm in purified water containing 250 ppm of the surfactant TREM 014 (polyhydric alcohol esters). This suspension was sprayed to the point of run-off on peanut seedlings.

The next experiment concerns Phytophthora infestans. Kind of experiment: whole plant or invertebrate. The format is in vivo. To be noted: for pest or weed control at 100 ppm: Phytophthora infestans, in Solanum lycopersicum, read-out: disease control rating, Ex. H, 100 PPM.

In brackets after ≈: the same amount, converted by molar mass. Like-named read-outs stand apart in the source and are kept apart here.

Take `C=C(c1ccc(F)cc1)C(O)(Cn1cncn1)c1ccc(F)cc1` (single isomer, unassigned) [Example 1277a]: in the experiment with Rhizoctonia solani (100 PPM), the “disease control rating, Ex. F” value was 52%. The pest or weed control at 20 ppm was 0% in the experiment with Rhizoctonia solani; 100% with Puccinia recondita; 95% in [4]; 1% with Pyricularia oryzae; 58% in the experiment on Venturia inaequalis; 24% in the experiment on Botrytis cinerea. Also, the pest or weed control at 20 ppm in experiment [5] stood at 74%. In experiment [1] (30°, 24 hours), the “MIC values, A. fumigatus” value was determined as 100 µg/mL (≈ 305 µM). The “% Survival” value is 80% in experiment [2] (day 7), 0% in experiment [2] (day 14) and 0% in experiment [2] (day 21). Besides, in [3] (30°, 24 hours), the “MIC values, C. albicans” value came out at 6.3 µg/mL (≈ 19.2 µM). In addition, the “disease control rating, Ex. I” value in the experiment with Plasmorpara viticola (100 PPM) worked out at 31%. For the same compound, the “disease control rating, Ex. E” value in the experiment on Pyricularia oryzae (100 PPM) amounted to 1%. The “disease control rating, Ex. C” value in the experiment on Botrytis cinerea (100 PPM) is on record as 36%. Besides, the “disease control rating, Ex. H” value in the experiment with Phytophthora infestans (100 PPM) is 8%.
With `C=C(c1cccc(Cl)c1)C(O)(Cn1cncn1)c1ccc(F)cc1F` (stereo not drawn) [Example 42], the pest or weed control at 20 ppm is 0% in the experiment on Rhizoctonia solani; 100% with Puccinia recondita; 98% in experiment [4]; 15% with Pyricularia oryzae; 29% with Venturia inaequalis; 38% with Botrytis cinerea. The pest or weed control at 20 ppm in experiment [5] came out at 100%. The pest or weed control at 100 ppm was 41% in the experiment on Rhizoctonia solani (100 PPM); 23% in the experiment with Plasmorpara viticola; 100% in experiment [4]; 31% in the experiment with Pyricularia oryzae; 100% in the experiment on Botrytis cinerea (100 PPM); 0% in the experiment on Phytophthora infestans. Also, the figures for the MIC in experiment [1] and in [3] were 6.3 µg/mL (≈ 17.4 µM) and 0.03 µg/mL (≈ 0.0829 µM), respectively. Moreover, the responders at 150 mg/kg in experiment [2] (ATCC11651, 168 h, day 7) is 80%; in [2] (ATCC11651, 336 h, day 14) it was 80%; in experiment [2] (ATCC11651, 504 h, day 21), 50%.
Consider `C=C(c1ccc([S+](C)[O-])cc1)C(O)(Cn1cncn1)c1ccc(F)cc1` (stereo not drawn) [Example 170], for which the pest or weed control at 20 ppm in the experiment with Rhizoctonia solani was 0%; in the experiment on Puccinia recondita, 100%; in [4] it was 95%; in the experiment with Pyricularia oryzae it was 0%; with Venturia inaequalis it was 19%; in the experiment on Botrytis cinerea it was 32%. The pest or weed control at 20 ppm in experiment [5] was found to be 69%. The pest or weed control at 100 ppm is 0% in the experiment on Rhizoctonia solani (100 PPM); 0% with Plasmorpara viticola; 10% with Pyricularia oryzae; 20% in the experiment on Botrytis cinerea (100 PPM); 0% with Phytophthora infestans. The results for the MIC in experiment [1] and in experiment [3] were 100 µg/mL (≈ 269 µM) and 1.6 µg/mL (≈ 4.31 µM), respectively.
In the case of `C=C(c1ccc(S(C)(=O)=O)cc1)C(O)(Cn1cncn1)c1ccc(F)cc1` (stereo not drawn) [Example 177], the pest or weed control at 20 ppm worked out at 0% in the experiment with Rhizoctonia solani; 100% in the experiment on Puccinia recondita; 46% in [4]; 0% in the experiment with Pyricularia oryzae; 82% with Venturia inaequalis; 50% in the experiment on Botrytis cinerea. The pest or weed control at 20 ppm in experiment [5] is 26%. Besides, the pest or weed control at 100 ppm in the experiment with Rhizoctonia solani (100 PPM) worked out at 0%; with Plasmorpara viticola, 0%; with Pyricularia oryzae, 10%; in the experiment on Botrytis cinerea (100 PPM), 26%; in the experiment on Phytophthora infestans it was 0%. The minimum inhibitory concentration (MIC) is > 100 µg/mL in experiment [1] and 3.2 µg/mL (≈ 8.26 µM) in [3].
For `OC(Cn1cncn1)(C(=Cc1ccccc1)c1ccccc1)c1ccc(F)cc1` (stereo not drawn) [Example 291], the pest or weed control at 20 ppm in the experiment on Rhizoctonia solani amounted to 0%; with Puccinia recondita it was 73%; in experiment [4], 83%; in the experiment with Pyricularia oryzae it was 1%; with Venturia inaequalis, 32%; in the experiment on Botrytis cinerea, 6%. Besides, the pest or weed control at 20 ppm in [5] was determined as 26%. Moreover, the pest or weed control at 100 ppm with Rhizoctonia solani (100 PPM) was 0%; with Plasmorpara viticola it was 78%; with Pyricularia oryzae, 1%; with Botrytis cinerea (100 PPM), 81%; with Phytophthora infestans it was 24%. Moreover, the MIC in experiment [1] was 100 µg/mL (≈ 259 µM); in experiment [3] it was 0.2 µg/mL (≈ 0.519 µM).
Turning to `C=C(CN(C)C)C(O)(Cn1cncn1)c1ccc(F)cc1` (stereo not drawn) [Example 454], the pest or weed control at 100 ppm with Rhizoctonia solani (100 PPM) came out at 0%; with Puccinia recondita, 0%; with Plasmorpara viticola, 0%; in experiment [4], 22%; in the experiment on Pyricularia oryzae it was 0%; with Venturia inaequalis, 0%. Also, the pest or weed control at 100 ppm (with Botrytis cinerea (100 PPM); in [5]; in the experiment on Phytophthora infestans) was 0% throughout. Also, the MIC is > 100 µg/mL in experiment [1] and 100 µg/mL (≈ 344 µM) in experiment [3].
Take `C=C(c1ccc(F)cc1)C(O)(Cn1cncn1)c1ccc(OC)cc1` (stereo not drawn) [Example 663]: the pest or weed control at 100 ppm in the experiment with Rhizoctonia solani (100 PPM) came to 36%; in the experiment on Puccinia recondita, 100%; with Plasmorpara viticola, 39%; in experiment [4] it was 99%; in the experiment on Pyricularia oryzae, 57%; in the experiment on Venturia inaequalis, 42%. In addition, the pest or weed control at 100 ppm with Botrytis cinerea (100 PPM) was determined as 95%; in [5] it was 100%; in the experiment with Phytophthora infestans, 0%.
Regarding `C=C(c1ccc(Cl)cc1)C(O)(Cn1cncn1)c1cccc(C(F)(F)F)c1` (stereo not drawn) [Example 685], the pest or weed control at 20 ppm in the experiment on Rhizoctonia solani turned out to be 15%; with Puccinia recondita, 100%; in [4] it was 67%; in the experiment on Venturia inaequalis, 57%; in the experiment on Botrytis cinerea, 28%; in [5] it was 66%. The pest or weed control at 100 ppm was found to be 29% in the experiment on Rhizoctonia solani (100 PPM), 0% with Pyricularia oryzae and 0% in the experiment with Botrytis cinerea (100 PPM). The figures for the MIC in experiment [1] and in experiment [3] were 100 µg/mL (≈ 254 µM) and 0.8 µg/mL (≈ 2.03 µM), respectively. The responders at 150 mg/kg in [2] (ATCC11651, 168 h, day 7) came to 30%; in experiment [2] (ATCC11651, 336 h, day 14), 10%; in [2] (ATCC11651, 504 h, day 21), 0%.

For the origin of these results see patent US4965280A, “Antifungal carbinols” (E. I. Du Pont de Nemours and Company, priority 1989, dated 1990).
